The record followed here is US10292972B1, “Pharmaceutical composition for treating cancer and a method thereof” (King Abdulaziz University, priority 2017, dated 2019).

As a reminder, the viability is a read-out of living cells in per cent, often relative to untreated cells.

In one test the test system is AsPC1 cell line. Briefly: cells. Format: cell-based. Conditions: Homo sapiens, ASPC1, 24 h, read-out: % Cell viability. The method, then:
(§1) MCF7, a breast cancer cell line was procured from the American Type Culture Collection (ATCC) and propagated in Dulbecco's Modified Eagle's medium (DMEM) supplemented with 10% (v/v) fetal bovine serum (FBS), 100 μg/ml streptomycin and 100 U/ml penicillin at 37° C. in a humidified incubator with 5% CO2. Human pancreatic cell lines, AsPC1 and PANC1, were obtained from the American Type Culture Collection (ATCC). AsPC1 cell line was grown in RPMI-1640 medium supplemented with 10% (v/v) fetal bovine serum (FBS), 100 μg/ml streptomycin and 100 U/ml penicillin. PANC1 cell line was cultured in DMEM supplemented with 10% (v/v) fetal bovine serum (FBS), 100 μg/ml streptomycin and 100 U/ml penicillin.
(§2) PANC1 and AsPC1 cells (1.3×10^4 cells/well) were sub-cultured in 96-well plates and incubated at 37° C. in a humidified incubator with 5% CO2 for 24 hrs. Varying concentrations of isopicrinine (i.e., 0, 30 μM, 75 μM, 150 μM and 300 μM were added to the cultured cells and further incubated at 37° C. in a humidified incubator with 5% CO2 for 24 hrs. The cell viability was determined using MTT (3-(4,5-dimethylthiazol-2-yl)-2,5-diphenyltetrazolium bromide) assay by following the manufacturer's instructions. Briefly, 20 μl/well of MTT was added to the cells and plates were incubated for 4 hrs. After the incubation, media along with the MTT was removed and 150 μl/well of isopropanol was added and further incubated for 15 min on shaker incubator. Spectrophotometer readings were taken at 450 nm and 630 nm. This assay is based on the conversion of yellow tetrazolium salt MTT to purple formazan crystal by metabolically active cells. The amount of formazan produced is proportional to the number of viable cells.

The next test deals with PANC1 cell line. Kind of test: cells. Conditions: Homo sapiens, PANC-1, 24 h, read-out: % Cell Viability. The format is cell-based. The method, then: as §1, §2

With `C/C=C1\CN2[C@H]3C[C@@H]1[C@@H](C(=O)OC)[C@]14C[C@H]2O[C@]31Nc1ccccc14` [isopicrinine], in the test on AsPC1 cell line, the viability at 30 µM worked out at 87.7%, the viability at 75 µM was determined as 55.9%, the viability at 150 µM turned out to be 53.5% and the viability at 300 µM was found to be 42.4%. For the same molecule, in the test on PANC1 cell line, the viability at 30 µM was 74.5%, the viability at 75 µM was 70.8%, the viability at 150 µM is 69.6% and the viability at 300 µM was 64.6%.
